One assay deals with MOLT-3. Briefly: Anti-leukemic activity against Molt-3 (T-lineage ALL, human acute lymphoblastic leukemia) cell line. It is filed as functional, cell-based.
The test system of another assay is NALM-6. Briefly: Anti-leukemic activity against Nalm-6 (B-lineage ALL, human acute lymphoblastic leukemia) cell line. It is filed as functional, cell-based.

For 18 compounds, IC50 results are on record in ChEMBL document CHEMBL1133422, “The S-alkyl chain length as a determinant of the anti-leukemic activity of cysteine chloromethyl ketone compounds” (Bioorg Med Chem Lett, 2000).

Structures are written as SMILES.

With `CCCCCCCCCCCCCCCCCCCCCCSC[C@H](NC(C)=O)C(=O)CCl`, the half-maximal inhibitory concentration (IC50) with MOLT-3 and with NALM-6 was > 100 µM each time.

Consider `CCSC[C@H](NC(C)=O)C(=O)CCl`, for which the IC50 (in general, the midpoint of a concentration-inhibition curve) in the assay on MOLT-3 was 99.9 µM; in the assay with NALM-6, 52.8 µM.

On to `CCCCCCCCSC[C@H](NC(C)=O)C(=O)CCl`, for which the 50% inhibitory concentration (IC50) with MOLT-3 worked out at 4.1 µM; in the assay with NALM-6, 5.6 µM.

Take `CCCCCCCCCCCCCCCCCCSC[C@H](NC(C)=O)C(=O)CCl`: the 50% inhibitory concentration (IC50) in the assay with MOLT-3 and in the assay on NALM-6 was > 100 µM in each case.

`CCCCCCCCCCCCCCSC[C@H](NC(C)=O)C(=O)CCl`: the values for the IC50 with MOLT-3 and with NALM-6 were 8.8 µM and 8.7 µM, respectively.

Consider `CCCCCCCCCCCCCSC[C@H](NC(C)=O)C(=O)CCl`, for which the IC50 in the assay on MOLT-3 and in the assay with NALM-6 was > 100 µM each time.

Consider `CCCCCCCSC[C@H](NC(C)=O)C(=O)CCl`, for which the IC50 in the assay with MOLT-3 came to 2.5 µM; in the assay on NALM-6, 4.8 µM.

Take `CCCCCCCCCCCCCCCCCCCCSC[C@H](NC(C)=O)C(=O)CCl`: the IC50 in the assay on MOLT-3 and in the assay with NALM-6 was > 100 µM each time.

Regarding `CCCCCCSC[C@H](NC(C)=O)C(=O)CCl`, the half-inhibitory concentration (IC50) in the assay with MOLT-3 stood at 0.7 µM; with NALM-6, 3.3 µM.

On to `CCCCCCCCCSC[C@H](NC(C)=O)C(=O)CCl`, for which the figures for the concentration for half-maximal inhibition (IC50) in the assay with MOLT-3 and in the assay with NALM-6 were 6.7 µM and 7.3 µM, respectively.

For `CCCCCSC[C@H](NC(C)=O)C(=O)CCl`, the IC50 is 5.4 µM in the assay with MOLT-3 and 5.8 µM with NALM-6.

With `CCCSC[C@H](NC(C)=O)C(=O)CCl`, the IC50 in the assay on MOLT-3 worked out at 8 µM; in the assay with NALM-6 it was 6.9 µM.

Turning to `CSC[C@H](NC(C)=O)C(=O)CCl`, the IC50 in the assay with MOLT-3 came to 80.8 µM; in the assay with NALM-6 it was 30.3 µM.

For `CCCCCCCCCCSC[C@H](NC(C)=O)C(=O)CCl`, the results for the 50% inhibitory concentration (IC50) in the assay with MOLT-3 and with NALM-6 were 3.4 µM and 4.7 µM, respectively.

As for `CCCCCCCCCCCCCCCCSC[C@H](NC(C)=O)C(=O)CCl`, the IC50 is 17.3 µM with MOLT-3 and 16 µM in the assay with NALM-6.

`CCCCCCCCCCCSC[C@H](NC(C)=O)C(=O)CCl`: the IC50 in the assay with MOLT-3 stood at 3 µM; with NALM-6, 1.7 µM.

For `CCCCSC[C@H](NC(C)=O)C(=O)CCl`, the results for the half-maximal inhibitory concentration (IC50) in the assay on MOLT-3 and in the assay on NALM-6 were 5.6 µM and 41.4 µM, respectively.

As for `CCCCCCCCCCCCCCCSC[C@H](NC(C)=O)C(=O)CCl`, the IC50 with MOLT-3 turned out to be 8.6 µM; in the assay on NALM-6 it was 8.9 µM.
